Measured values from patent US20230085307A1, “PYRIDAZINONE COMPOUND AND HERBICIDE” (NISSAN CHEMICAL CORPORATION, priority 2019, published 2023).

How the values were obtained:
[1] = tested on: Japanese bulrush; test: Test Example 1: herbicidal activity, application before weed generation under submerged conditions (Table 16, symbol B); type: in vivo, Japanese bulrush (Schoenoplectus juncoides); settings: amount of applied herbicide 320 g/ha
Method in brief: (§1)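 Submerged Wagner pots (alluvial soil, 4 cm water) sown with weed seeds and planted with 2.5-leaf rice seedlings; emulsifiable concentrate diluted in water applied to water surface on sowing day. Held in greenhouse at 25-30 °C; injury scored 0-5 by herbicidal rate after three weeks.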

[2] = tested on: wild oat; test: Test Example 5: herbicidal effect by foliage application, plastic box (Table 20, symbol I); type: in vivo, wild oat (Avena fatua); settings: 320 g/ha; for herbicidal effect on wild oat (I): foliage application, three weeks after application
Method in brief: (§2)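 Plants sown in sterilized diluvial soil and grown 14 days in a greenhouse at 25° C to 30° C, then sprayed on the foliage with the compound's emulsion diluted in water to a predetermined herbicide amount. Injury to weeds and crops scored three weeks after application on a visual rating scale.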

[3] = tested on: persian speedwell; test: Test Example 5: herbicidal effect by foliage application, plastic box (Table 20, symbol R); type: in vivo, Persian speedwell (Veronica persica); settings: 320 g/ha; for herbicidal effect on persian speedwell (R): foliage application, three weeks after application
Method in brief: as §2

[4] = tested on: wild oat; test: Test Example 4: herbicidal effect by soil treatment (Table 19, symbol I); type: in vivo, wild oat (Avena fatua); settings: amount of applied herbicide 320 g/ha
Method in brief: (§3)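 Seeds were sown in sterilized diluvial soil and covered with about 1.5 cm of soil. An emulsion formulation diluted with water to a predetermined herbicide amount was sprayed evenly onto the soil surface. Plants grew in a greenhouse at 25° C. to 30° C., and the effect was scored three weeks after application using criteria from an earlier test.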

[5] = tested on: Chinese sprangletop; test: Test Example 3: herbicidal effect by foliage application, Wagner pot (Table 18, symbol D); type: in vivo, chinese sprangletop (Leptochloa chinensis); settings: for Herbicidal effect on D (Chinese sprangletop), foliage application: amount of applied herbicide 320 g/ha
Method in brief: (§4)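 Plants were sown in alluvial soil held under 0.1–0.5 cm standing water and grown 14 days in a greenhouse at 25–30 °C. An emulsifiable formulation, water-diluted to the set dose, was then sprayed onto the foliage, and effects were scored three weeks later using previously defined criteria.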

[6] = tested on: redroot pigweed; test: Test Example 4: herbicidal effect by soil treatment (Table 19, symbol N); type: in vivo, redroot pigweed (Amaranthus retroflexus); settings: amount of applied herbicide 320 g/ha
Method in brief: as §3

[7] = tested on: southern crabgrass; test: Test Example 5: herbicidal effect by foliage application, plastic box (Table 20, symbol F); type: in vivo, southern crabgrass (Digitaria ciliaris); settings: 320 g/ha; for herbicidal effect on southern crabgrass (F): foliage application, three weeks after application
Method in brief: as §2

[8] = tested on: redroot pigweed; test: Test Example 5: herbicidal effect by foliage application, plastic box (Table 20, symbol N); type: in vivo, redroot pigweed (Amaranthus retroflexus); settings: 320 g/ha, foliage application after 14-day growth, evaluated three weeks after application
Method in brief: as §2

[9] = tested on: Japanese bulrush; test: Test Example 2: herbicidal activity, application during weed generation under submerged conditions (Table 17, symbol B); type: in vivo, Japanese bulrush (Schoenoplectus juncoides); settings: AAH 320 g/ha; application during weed generation, submerged conditions
Method in brief: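 3-wk visual-criteria score after one water-surface dose. Emulsion formulation, water-diluted to set rate; applied at 1–2 leaf stage; alluvial soil, 4 cm standing water; seeds co-sown; greenhouse 25–30° C.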

[10] = tested on: green foxtail; test: Test Example 4: herbicidal effect by soil treatment (Table 19, symbol G); type: in vivo, green foxtail (Setaria viridis); settings: amount of applied herbicide 320 g/ha
Method in brief: as §3

[11] = tested on: chickweed; test: Test Example 4: herbicidal effect by soil treatment (Table 19, symbol P); type: in vivo, common chickweed (Stellaria media); settings: amount of applied herbicide 320 g/ha
Method in brief: as §3

[12] = tested on: lambsquarters; test: Test Example 5: herbicidal effect by foliage application, plastic box (Table 20, symbol O); type: in vivo, lambsquarters (Chenopodium album); settings: 320 g/ha; for herbicidal effect on lambsquarters (O): foliage application, three weeks after application
Method in brief: as §2

[13] = tested on: windgrass; test: Test Example 4: herbicidal effect by soil treatment (Table 19, symbol L); type: in vivo, windgrass (Apera spica-venti); settings: amount of applied herbicide 320 g/ha
Method in brief: as §3

[14] = tested on: Italian ryegrass; test: Test Example 4: herbicidal effect by soil treatment (Table 19, symbol K); type: in vivo, Italian ryegrass (Lolium multiflorum); settings: amount of applied herbicide 320 g/ha
Method in brief: as §3

[15] = tested on: rice flat sedge; test: Test Example 3: herbicidal effect by foliage application, Wagner pot (Table 18, symbol E); type: in vivo, rice flat sedge (Cyperus iria); settings: for Herbicidal effect on E (rice flat sedge), foliage application: amount of applied herbicide 320 g/ha
Method in brief: as §4

[16] = tested on: oval-leafed pondweed; test: Test Example 1: herbicidal activity, application before weed generation under submerged conditions (Table 16, symbol C); type: in vivo, oval-leafed pondweed (Monochoria vaginalis); settings: amount of applied herbicide 320 g/ha
Method in brief: as §1

[17] = tested on: windgrass; test: Test Example 5: herbicidal effect by foliage application, plastic box (Table 20, symbol L); type: in vivo, windgrass (Apera spica-venti); settings: foliage application, 320 g/ha, three weeks after application
Method in brief: as §2

[18] = foliage application after 14-day growth, evaluated three weeks after application

Row | Compound | Herbicidal effect, B: Japanese bulrush [1] | herbicidal effect rating, B: Japanese bulrush [9] | Herbicidal effect, C: oval-leafed pondweed [16] | herbicidal effect on wild oat (I) [2] | herbicidal effect on persian speedwell (R) [3] | I: wild oat, herbicidal effect grade [4] | Herbicidal effect on D (Chinese sprangletop), foliage application [5] | N: redroot pigweed, herbicidal effect grade [6] | herbicidal effect on windgrass (L) [17] | herbicidal effect on southern crabgrass (F) [7] | G: green foxtail, herbicidal effect grade [10] | P: chickweed, herbicidal effect grade [11] | herbicidal effect on lambsquarters (O) [12] | L: windgrass, herbicidal effect grade [13] | K: Italian ryegrass, herbicidal effect grade [14] | Herbicidal effect on E (rice flat sedge), foliage application [15] | other results
1 | C=C(C)C(=O)Oc1c(C)nn(C)c(=O)c1-c1c(-c2ccccc2OC)sc2cc(OC)ccc12 [3-155] | 5 (Herbicidal rate of 90% or more (almost completely withered)) | 5 (Herbicidal rate of 90% or more (almost completely withered)) | 5 (Herbicidal rate of 90% or more (almost completely withered)) | – | – | – | – | – | – | – | – | – | – | – | – | – | herbicidal effect on I: wild oat (evaluation grade 0-5) [2, 18]: 3 (Herbicidal rate of 40% or more and less than 70%); herbicidal effect on R: persian speedwell (evaluation grade 0-5) [3, 18]: 5 (Herbicidal rate of 90% or more (almost completely withered)); Herbicidal effect by soil treatment, I: wild oat [4]: 0 (Herbicidal rate of 5% or less (almost no effect)); herbicidal effect on Chinese sprangletop (D) ([5]; 320 g/ha): 4 (Herbicidal rate of 70% or more and less than 90%); Herbicidal effect by soil treatment, N: redroot pigweed [6]: 4 (Herbicidal rate of 70% or more and less than 90%); herbicidal effect on F: southern crabgrass (evaluation grade 0-5) [7, 18]: 5 (Herbicidal rate of 90% or more (almost completely withered)); herbicidal effect on N: redroot pigweed (evaluation grade 0-5) [8]: 5 (Herbicidal rate of 90% or more (almost completely withered)); Herbicidal effect by soil treatment, G: green foxtail [10]: 0 (Herbicidal rate of 5% or less (almost no effect)); Herbicidal effect by soil treatment, P: chickweed [11]: 1 (Herbicidal rate of 5% or more and less than 20%); herbicidal effect on O: lambsquarters (evaluation grade 0-5) [12, 18]: 4 (Herbicidal rate of 70% or more and less than 90%); Herbicidal effect by soil treatment, L: windgrass [13]: 4 (Herbicidal rate of 70% or more and less than 90%); Herbicidal effect by soil treatment, K: Italian ryegrass [14]: 3 (Herbicidal rate of 40% or more and less than 70%); herbicidal effect on rice flat sedge (E) ([15]; 320 g/ha): 4 (Herbicidal rate of 70% or more and less than 90%)
2 | CCOc1ccc(-c2oc3ccc(F)cc3c2-c2c(O)c(C)nn(C)c2=O)cc1 [9-021] | 5 (Herbicidal rate of 90% or more (almost completely withered)) | 3 (Herbicidal rate of 40% or more and less than 70%) | 5 (Herbicidal rate of 90% or more (almost completely withered)) | 4 (Herbicidal rate of 70% or more and less than 90%) | 5 (Herbicidal rate of 90% or more (almost completely withered)) | 0 (Herbicidal rate of 5% or less (almost no effect)) | 3 (Herbicidal rate of 40% or more and less than 70%) | 5 (Herbicidal rate of 90% or more (almost completely withered)) | 0 (Herbicidal rate of 5% or less (almost no effect)) | 4 (Herbicidal rate of 70% or more and less than 90%) | 4 (Herbicidal rate of 70% or more and less than 90%) | 0 (Herbicidal rate of 5% or less (almost no effect)) | 3 (Herbicidal rate of 40% or more and less than 70%) | 3 (Herbicidal rate of 40% or more and less than 70%) | 5 (Herbicidal rate of 90% or more (almost completely withered)) | 5 (Herbicidal rate of 90% or more (almost completely withered)) | –
3 | CCCOc1ccc(-c2oc3ccc(F)cc3c2-c2c(O)c(C)nn(C)c2=O)cc1 [9-023] | 5 (Herbicidal rate of 90% or more (almost completely withered)) | 3 (Herbicidal rate of 40% or more and less than 70%) | 5 (Herbicidal rate of 90% or more (almost completely withered)) | 3 (Herbicidal rate of 40% or more and less than 70%) | 5 (Herbicidal rate of 90% or more (almost completely withered)) | 0 (Herbicidal rate of 5% or less (almost no effect)) | 3 (Herbicidal rate of 40% or more and less than 70%) | 5 (Herbicidal rate of 90% or more (almost completely withered)) | 4 (Herbicidal rate of 70% or more and less than 90%) | 4 (Herbicidal rate of 70% or more and less than 90%) | 5 (Herbicidal rate of 90% or more (almost completely withered)) | 0 (Herbicidal rate of 5% or less (almost no effect)) | 5 (Herbicidal rate of 90% or more (almost completely withered)) | 3 (Herbicidal rate of 40% or more and less than 70%) | 5 (Herbicidal rate of 90% or more (almost completely withered)) | 5 (Herbicidal rate of 90% or more (almost completely withered)) | –
4 | COc1ccccc1-c1sc2c(Cl)c(OC)ccc2c1-c1c(O)c(C)nn(C)c1=O [Compound No. 7-001, 4-(7-chloro-6-methoxy-2-(2-methoxyphenyl)benzo[b]thiophen-3-yl)-5-hydroxy-2,6-dimeth ylpyridazin-3-(2H)-one] | 3 (Herbicidal rate of 40% or more and less than 70%) | 3 (Herbicidal rate of 40% or more and less than 70%) | 2 (Herbicidal rate of 20% or more and less than 40%) | 0 (Herbicidal rate of 5% or less (almost no effect)) | 5 (Herbicidal rate of 90% or more (almost completely withered)) | 0 (Herbicidal rate of 5% or less (almost no effect)) | 1 (Herbicidal rate of 5% or more and less than 20%) | 5 (Herbicidal rate of 90% or more (almost completely withered)) | 5 (Herbicidal rate of 90% or more (almost completely withered)) | 0 (Herbicidal rate of 5% or less (almost no effect)) | 0 (Herbicidal rate of 5% or less (almost no effect)) | 5 (Herbicidal rate of 90% or more (almost completely withered)) | 4 (Herbicidal rate of 70% or more and less than 90%) | 0 (Herbicidal rate of 5% or less (almost no effect)) | 3 (Herbicidal rate of 40% or more and less than 70%) | 4 (Herbicidal rate of 70% or more and less than 90%) | –
